Data taken from paper PMC11513854, “De novo GTP synthesis is a metabolic vulnerability for the interception of brain metastases” (Cell Reports Medicine, 2024).

Experiment: Parallel artificial membrane permeability (PAMPA) assay
Format: in vitro ADME
Conditions: 50 μM, pH 7.4, 16 h; −LogPe < 6 indicate high CNS permeability
Method: The permeability of the compounds was evaluated using the parallel artificial membrane permeability (PAMPA) assay, as previously described.[35] The PAMPA assembly was consisted of the acceptor plate (MultiScreen IP Filter Plate, Millipore Sigma, Canada) and the donor plate (96 well Collection Plate, Millipore Sigma, Canada). The artificial membrane solution was prepared as 15 mg/mL of polar brain lipid from porcine (Sigma Aldrich, Oakville, Canada) in a solution of 60% chloroform/40% dodecane. Seven μL of the mixture was pipetted into each acceptor plate well (top compartment). Thereafter, 300 μL of PBS (1 × PBS, pH 7.4, 5% DMSO) solution was added to each well of the acceptor plate and 300 μL of drug-containing donor solutions (50 μM compounds in 1 × PBS, pH 7.4, 5% DMSO) to each well of the donor plate (bottom compartment) in triplicate. […] The concentration of the compounds was determined by LC/MS/MS. The effective permeability (Pe), in units of centimeter per second, was calculated using the following equation: LogPe=Log{C×[−Ln(1−[drug]acceptor/[drug]equilibrium)]} Where: C = VD × VA/[(VD + VA) × t × A]; VD = volume of donor compartment (0.30 mL); VA = volume of acceptor compartment (0.30 mL); A = filter area (0.24 cm^2 for Multi-Screen Permeability Filter plate); and t = incubation time (in seconds).

Structure (SMILES): COc1c(C)c2c(c(O)c1C/C=C(\C)CCC(=O)OCCN1CCCC1)C(=O)OC2 [Compound 3]
- BBB penetrance by PAMPA: BBB penetrant
